Experimental data taken from US9175022B2, “Compounds for the treatment of proliferative disorders” (Synta Pharmaceuticals Corp., priority 2005, dated 2015).

Columns and labels:
HL-60-TX1000 (MDR) = assay: In vitro cytotoxicity, MTS assay, 72 hours; type: cell-based; conditions: Homo sapiens, HL60/TX1000, HL-60-TX1000 multi-drug resistant, read-out: IC50 (concentration required to inhibit 50% tumor cell growth)
Method: (§1) The in vitro cytotoxicity of the compounds of the invention was determined in the following human cell lines: HL-60, HL-60-TX1000 (MDR), MES-SA and MES-SA/DX5 (uterine sarcoma). MES-SA is a model of uterine sarcoma, and the cells are sensitive to a number of chemotherapeutic agents including doxorubicin, dactinomycin, mitomycin C, taxol and bleomycin. The MES-SA/Dx5 cell line was established in the presence of increasing concentrations of doxorubicin. […] All cells except HL-60-TX1000 were purchased from ATCC. HL-60, a model of myeloid leukemia, was from ATCC and HL60/TX1000 was a gift from Dr. Bhalla of Emory University School of Medicine. HL-60/TX1000 was isolated in vitro by subculturing HL-60 in progressively higher concentration of Taxol. HL-60/TX1000 cells over-express mdr-1 mRNA and p-glycoprotein, as determined by western blot and immunofluorescence labeling with antiPGP antibodies
(§2) The cell lines were maintained in RPMI1640 (GIBCO) supplemented with 10% FCS, 100 units/mL penicillin, 100 ug/ml streptomycin, and 2 mM L-glutamine. Cells were split every third day and diluted to a concentration of 2×10^5 cells/mL one day before the experiment was performed. All experiments were performed on exponentially growing cell cultures. Cell densities were 2.5×10^4 cells/mL in all experiments.
(§3) Test compounds were prepared by dissolving the compounds at a concentration of 10 mM in 100% DMSO. Final concentrations 10, 1, 0.1, 0.01 and 0.001 μM were obtained by diluting the stock solution directly into the tissue culture medium. Cells were incubated with varying concentrations of test compounds for 72 hours and the IC50 was determined by MTS (i.e. […]) assay. IC50 in this context stands for the concentration of a compound required to inhibit 50% tumor cell growth.

HL-60 = assay: In vitro cytotoxicity, MTS assay, 72 hours; type: cell-based; conditions: Homo sapiens, HL-60, 72 hours, read-out: IC50 (concentration required to inhibit 50% tumor cell growth)
Method: as §1, §2, §3

[1] = test system: MES-SA/DX5 (uterine sarcoma); assay: In vitro cytotoxicity, MTS assay, 72 hours; type: cell-based; conditions: Homo sapiens, MES-SA/DX5 multi-drug resistant, read-out: IC50 (concentration required to inhibit 50% tumor cell growth)
Method: as §1, §2, §3

MES-SA = assay: In vitro cytotoxicity, MTS assay, 72 hours; type: cell-based; conditions: Homo sapiens, read-out: IC50 (concentration required to inhibit 50% tumor cell growth)
Method: as §1, §2, §3

[2] = test system: MDA-MB-435S melanoma cells or RERF-LC-AI lung tumor cells; assay: Anti-tumor activity in nude mouse xenograft models; type: in vivo; conditions: i.v.
Method: The human tumor cell line, MDA-MB-435S (ATCC #HTB-129; G. Ellison, et al., Mol. Pathol. 55:294-299, 2002), is obtained from the American Type Culture Collection (ATCC; Manassas, Va., USA). The human tumor cell line, RERF-LC-AI (RCB0444; S. Kyoizumi, et al., Cancer. Res. 45:3274-3281, 1985), is obtained from the Riken Cell Bank (RCB; Tsukuba, Ibaraki, Japan). The cell lines are cultured in growth media prepared from 50% Dulbecco's Modified Eagle Medium (high glucose), 50% RPMI Media 1640, 10% fetal bovine serum (FBS), 1% 100×L-glutamine, 1% 100× Penicillin-Streptomycin, 1% 100× sodium pyruvate and 1% 100×MEM non-essential amino acids. FBS is obtained from ATCC and all other reagents are obtained from Invitrogen Corp. (Carlsbad, Calif., USA). […] The supernatant is aspirated and the cell pellet is resuspended in 10 mL of growth media and the cell number is determined using a hemocytometer. […]
Tumors are then permitted to develop in vivo until they reached approximately 100-200 mm^3 in volume, which typically required 2-3 weeks following implantation. Tumor volumes (V) are calculated by caliper measurement of the width (W), length (L) and thickness (T) of tumors using the following formula: V=0.5326×(L×W×T). […]

[3] = test system: CHO-α-tubulin-YFP or MCF7-α-tubulin-YFP cells; assay: Inhibition of tubulin polymerization, tubulin-YFP fluorescence imaging; type: cell-based; conditions: living or fixed cells, fluorescence microscopy
Text: Wild-type Chinese Hamster Ovary cells (WT CHO) cells are maintained in Ham's F-12 medium supplemented with 10% fetal bovine serum (FBS; HyClone, Logan, Utah). Cells of low density (−20%) growing on 2-well chambered cover-slips (Labtek (Campbell, Calif.) or Fisher Scientific) are transfected with a mammalian expression vector encoding α-tubulin-YFP (Clontech, Palo Alto, Calif.) with the use of FuGENE 6 (Roche Molecular Biochemicals, Indianapolis, Ind.), according to the manufacturer's instructions. Twenty-four hours after transfection, the cells are cultured in 400 μg/ml G418 (Invitrogen, Carlsbad, Calif.)-containing selection medium for 2 weeks. Living cells are examined using a fluorescent microscope for α-tubulin-YFP expression. […] Expressed tubulin-YFP is detected as a single band in Western blots. […]
CHO-α-tubulin-YFP or MCF7-α-tubulin-YFP cells are cultured in 2-well chambered cover-slips (Labtek (Campbell, Calif.) or Fisher Scientific) for 24 hours before treatment with a compound of the invention. […] Tubulin-YFP fluorescence in living cells or fixed cells is captured using a standard filter for FITC and objectives of 20× or 60× magnification on a Nikon TE300 microscope with a Leica DC50 color digital camera (Leica, Bannockburn, Ill.) or a CoolSnap HQ monochrome CCD camera (Photonetrics, Tucson, Ariz.). […]

CV-1 cells = assay: Microtubule disruption in cells resistant to colchicine and vincristine; type: cell-based; conditions: 500 nM; 24, 48 and 72 hr
Method: The effects of compounds of the invention on microtubules can be studied in CV-1 cells. The microtubules of CV-1 cells are known to be resistant to the depolymerizing effects of colchicine and vincristine. CV-1 cells are treated with 500 nM of a compound of the invention, or vincristine or colchicines. At 24, 48 and 72 hr the cells are fixed and stained to examine microtubule structure. In cells treated with compounds of the invention, microtubule structures are expected to be diminished compared to untreated cells.

| SMILES | IC50 (HL-60-TX1000 (MDR)) [nM] | IC50 (HL-60) [nM] | IC50 [1] [nM] | IC50 (MES-SA) [nM] | overt toxicity (effect on body weights) ([2]; nude mice) | tubulin-YFP labeled microtubule pattern [3] | microtubule structure (CV-1 cells) | tumor growth ([2]; 3 days per week, 9-10 doses, compounds 6.25, 12.5 and 25 mg/kg, paclitaxel 7.5 mg/kg) |
| --- | --- | --- | --- | --- | --- | --- | --- | --- |
| COc1ccc(-c2cnnn2-c2cc(OC)c(OC)c(OC)c2)cc1 [Compound 3, 1-(3,4,5-trimethoxy-phenyl)-5-(4-methoxy-phenyl)-1H-[1,2,3]triazole] | 20 | 53 | 37 | 52 | minimal |  |  |  |
| COc1cc(-n2nncc2-c2ccc(N(C)C)cc2)cc(OC)c1OC [Compound 5, 1-(3,4,5-trimethoxy-phenyl)-5-[4-(N,N-dimethylamino)-phenyl]-1H-[1,2,3]triazole] | 7.5 | 41.5 | 29 | 68.5 |  |  |  |  |
| CC(=O)O[C@H]1C(=O)[C@@]2(C)[C@H]([C@H](OC(=O)c3ccccc3)[C@]3(O)C[C@H](OC(=O)[C@H](O)[C@@H](NC(=O)c4ccccc4)c4ccccc4)C(C)=C1C3(C)C)[C@]1(OC(C)=O)CO[C@@H]1C[C@@H]2O [Taxol, paclitaxel, reference compound] | 1000 | 2 | 5000 | 5 |  | microtubule bundle formation |  |  |
| COc1cc2c(c(OC)c1OC)-c1ccc(OC)c(=O)cc1[C@@H](NC(C)=O)CC2 [colchicines, colchicine] |  |  |  |  |  |  | Disorganized but clear microtubule structures |  |
| CC(=O)O[C@H]1C(=O)[C@@]2(C)[C@H]([C@H](OC(=O)c3ccccc3)[C@]3(O)C[C@H](OC(=O)[C@H](O)[C@@H](NC(=O)c4ccccc4)c4ccccc4)C(C)=C1C3(C)C)[C@]1(OC(C)=O)CO[C@@H]1C[C@@H]2O [paclitaxel, reference compound] |  |  |  |  |  |  |  | decreased tumor growth |
| CC[C@]1(O)C[C@H]2CN(CCc3c([nH]c4ccccc34)[C@@](C(=O)OC)(c3cc4c(cc3OC)N(C=O)[C@H]3[C@@](O)(C(=O)OC)[C@H](OC(C)=O)[C@]5(CC)C=CCN6CC[C@]43[C@@H]65)C2)C1 [vincristine, Vincristine] |  |  |  |  |  |  | Disorganized but clear microtubule structures |  |
